Experimental data reported in patent EP1189687B1, “FLOWABLE W/O TYPE EMULSIONS WITH A HIGH WATER CONTENT CONTAINING MEDIUM POLAR LIPIDS” (Beiersdorf AG, priority 1999, dated 2000).

Assay: Interfacial tension of medium-polar lipids against water (measure of polarity)
Assay type: physicochemical
Settings: taken as polarity index of the lipid (the lower the tension, the more polar)
Text: Öle und Fette unterscheiden sich unter anderem in ihrer Polarität, welche schwierig zu definieren ist. Es wurde bereits vorgeschlagen, die Grenzflächenspannung gegenüber Wasser als Maß für den Polaritätsindex eines Öls bzw. einer Ölphase anzunehmen. Dabei gilt, daß die Polarität der betreffenden Ölphase umso größer ist, je niedriger die Grenzflächenspannung zwischen dieser Ölphase und Wasser ist. Erfindungsgemäß wird die Grenzflächenspannung als ein mögliches Maß für die Polarität einer gegebenen Ölkomponente angesehen.
Die Grenzflächenspannung ist diejenige Kraft, die an einer gedachten, in der Grenzfläche zwischen zwei Phasen befindlichen Linie der Länge von einem Meter wirkt. Die physikalische Einheit für diese Grenzflächenspannung errechnet sich klassisch nach der Beziehung Kraft/Länge und wird gewöhnlich in mN/m (Millinewton geteilt durch Meter) wiedergegeben. Sie hat positives Vorzeichen, wenn sie das Bestreben hat, die Grenzfläche zu verkleinern. Im umgekehrten Falle hat sie negatives Vorzeichen.
Die nachfolgende Tabelle 1 führt mittelpolare Lipide auf, die als Einzelsubstanzen oder auch im Gemisch untereinander erfindungsgemäß vorteilhaft sind. Die betreffenden Grenzflächenspannungen gegen Wasser sind in der letzten Spalte angegeben. Es ist jedoch auch vorteilhaft, Gemische aus höher- und niederpolaren und dergleichen zu verwenden, sofern gewährleistet ist, daß die Gesamtpolarität der Ölphase im beanspruchten Bereich liegt. Tabelle 1

Structure (SMILES) | Grenzflächenspannung gegen Wasser
CCCCCCCCCCCCCCCCCC(=O)OC(C)C [Isopropylstearal, Isopropyl Stearate] | 21,9 mN/m
CCCCCCCCC(CO)CCCCCC (centres unmarked) [Isofol® 16, Hexyl Decanol] | 24,3 mN/m
CCCCCCCCCCCCCCCCCCOC(=O)CCCCCC [Tegosoft® SH, Stearyl Heptanoate] | 28,7 mN/m
CCCCCCCCOC(=O)CCCCCCCCCCCCCCC(C)C [Prisorine® 2036, Octyl Isostearate] | 29,7 mN/m
CCCCCCCCCCCCCC(=O)OCC(CCCCCCCC)CCCCCCCCCC (centres unmarked) [MOD, Octyldodeceyl Myristate] | 22,1 mN/m
CCCCCCCCCCC(CO)CCCCCCCC (centres unmarked) [Eutanol® G, Octyldodecanol] | 24,8 mN/m
CCCCCCCCCCCCCCCCCC(=O)OCCCCCCCC [Cetiol® 868, Octyl Stearate] | 28,4 mN/m
CCCCCCCC(=O)OCC(COC(=O)CCCCCCC)OC(=O)CCCCCCC [Trivent® OCG, Tricaprylin] | 20,2 mN/m
